This is an account of results in patent US11667602B2, “Compounds and their use” (AstraZeneca AB, priority 2020, dated 2023).

A short description of data set [1]: Human Liver Microsomal Stability (Test C). Conditions: human, liver microsomes. In kind it is in vitro ADME. In outline: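 CLint (μl/min/mg protein) derived from compound depletion in human liver microsomes following a published standardized early-DMPK protocol; replicate determinations given as arithmetic mean.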
Data set [2] can be described thus: Human Plasma Protein Binding (Test B). In kind it is in vitro ADME. Conditions: fraction unbound (fu). The essentials: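 Values given as % free (fu) in human plasma, using the method of Wernevik et al. (2020). For compounds tested more than once, the arithmetic mean is given.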
Data set [3] can be described thus: Human Hepatocyte Stability (Test D). The format is in vitro ADME. Conditions: human, cryopreserved pooled human hepatocytes (LiverPool 10-Donor), geometric mean if run multiple times. The essentials: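 Intrinsic clearance (μL/min/10^6 cells), derived as kV/N from the log-linear loss of parent compound. Compound incubated at 37 °C with cryopreserved pooled human hepatocytes, 0.25×10^6 cells in 0.25 mL L-15; dosing solution 100 μM in acetonitrile. Singlicate incubations, cassette LC-MS; repeats reported as geometric mean.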

Another data set has as its target T1, human RXFP1 (Homo sapiens, UniProt Q9HBX9).
T1 sequence (Q9HBX9 1-757): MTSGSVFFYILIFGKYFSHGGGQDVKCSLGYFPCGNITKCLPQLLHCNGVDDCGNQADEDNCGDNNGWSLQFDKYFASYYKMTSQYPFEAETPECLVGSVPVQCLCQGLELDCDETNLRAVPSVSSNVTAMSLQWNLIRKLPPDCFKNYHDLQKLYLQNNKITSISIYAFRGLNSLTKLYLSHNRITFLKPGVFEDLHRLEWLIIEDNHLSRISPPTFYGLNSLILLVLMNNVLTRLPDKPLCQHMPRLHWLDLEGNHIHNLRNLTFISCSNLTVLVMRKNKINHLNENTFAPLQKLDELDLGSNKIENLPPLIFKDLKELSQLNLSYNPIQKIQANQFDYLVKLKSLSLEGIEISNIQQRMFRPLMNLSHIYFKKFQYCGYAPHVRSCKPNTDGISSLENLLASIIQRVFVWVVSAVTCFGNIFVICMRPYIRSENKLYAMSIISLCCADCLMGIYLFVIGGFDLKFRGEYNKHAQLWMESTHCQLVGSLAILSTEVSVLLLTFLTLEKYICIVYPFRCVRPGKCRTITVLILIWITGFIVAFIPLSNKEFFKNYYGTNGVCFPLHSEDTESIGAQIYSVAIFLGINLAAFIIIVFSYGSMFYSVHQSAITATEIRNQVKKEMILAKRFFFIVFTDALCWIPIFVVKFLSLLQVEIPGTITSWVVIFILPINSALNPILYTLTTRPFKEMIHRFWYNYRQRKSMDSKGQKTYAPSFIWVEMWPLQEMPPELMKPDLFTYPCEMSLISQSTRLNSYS
Kind of data set: Human RXFP1 Phospho-ERK Assay (Test H). In kind it is cell-based. Further details: expressed in transfected cells. To be noted: HEK293s cells stably transfected with human RXFP1; phospho-ERK (Thr202/Tyr204) HTRF, 5 min stimulation; read-out: Test H phospo-ERK assay EC50. The text has this:
Cells: HEK293s cells stably transfected with human RXFP1 in pIRESneo3 was employed.
On the technique in general: Time-resolved FRET reads energy transfer from a long-lived donor to a nearby acceptor.

For orientation: microsomal CLint means the rate of metabolic loss divided by the concentration. Read a high microsomal CLint as faster metabolism. One may read the hepatocyte CLint as the capacity of the preparation to metabolise the compound, expressed as a volume cleared per time. Higher therefore signals rapid turnover. One may read the EC50 as the concentration needed to bring the measured effect to its halfway point. Regarding `COc1cc(F)c(-c2ccc(C(=O)O)cc2)cc1C(=O)N[C@H]1[C@@H](C(=O)Nc2cccc(S(=O)(=O)C(F)(F)F)c2)[C@@H]2C=C[C@H]1C2` (single isomer, unassigned) [Example 552], the intrinsic clearance (microsomal CLint) in data set [1] was determined as 7.2 µL/min/mg. Moreover, the “Test B Human Plasma Protein Binding (% free)” value in data set [2] came to 0.060 % free. This compound came in with a hepatocyte CLint at 1 µM in data set [3] of 12 µL/min/1e6 cells. For the same compound, the 50% effective concentration (EC50) at human RXFP1 is 81 nM.
In the case of `COc1cc(F)c(O[C@H]2CC[C@@](C)(C(=O)O)CC2)cc1C(=O)N[C@@H]1[C@H]2CC[C@H](C2)[C@@H]1C(=O)Nc1cccc(S(=O)(=O)C(F)(F)F)c1` [Example 208, (1S,4s)-4-(2-Fluoro-4-methoxy-5-(((1S,2R,3S,4R)-3-((3-((trifluoromethyl)sulfonyl)phenyl)carbamoyl)bicyclo[2.2.1]heptan-2-yl)carbamoyl)phenoxy)-1-methylcyclohexane-1-carboxylic acid], the microsomal CLint in data set [1] was found to be 54 µL/min/mg. Moreover, the “Test B Human Plasma Protein Binding (% free)” value in data set [2] amounted to 1 % free. The compound also gave a hepatocyte CLint at 1 µM in data set [3] of 15 µL/min/1e6 cells. Besides, the EC50 at human RXFP1 came to 1.2 nM.
The compound `COc1cc(F)c(O[C@H]2CC[C@@](C)(C(=O)O)CC2)cc1C(=O)N[C@@H]1[C@H]2CC[C@H](C2)[C@@H]1C(=O)Nc1ccc(F)c(S(F)(F)(F)(F)F)c1` [Example 353] gave an intrinsic metabolic clearance (microsomal CLint) in data set [1] of 61 µL/min/mg. For the same compound, in data set [2], the “Test B Human Plasma Protein Binding (% free)” value is below 0.23 % free. The hepatocyte CLint at 1 µM in data set [3] was 21 µL/min/1e6 cells. The EC50 at human RXFP1 came to 0.36 nM.
`COc1cc(F)c(O[C@H]2CC[C@@H](C(=O)O)CC2)cc1C(=O)N[C@@H]1[C@H]2CC[C@H](C2)[C@@H]1C(=O)Nc1ccc(F)c(S(F)(F)(F)(F)F)c1` [Example 433] displayed a microsomal CLint in data set [1] of 43 µL/min/mg. Moreover, the “Test B Human Plasma Protein Binding (% free)” value in data set [2] was 0.38 % free. Further, in data set [3], the intrinsic clearance (hepatocyte CLint) at 1 µM was 14 µL/min/1e6 cells.
